The values below come from US12404262B2 (priority 2021, dated 2025).

Each structure is given as a SMILES string. In brackets after ≈: the same amount, converted by molar mass. Bounds are passed on as bounds.

For series [1] the following is noted: 1.0% DMSO, 24-hour incubation at ambient temperature, maximum theoretical 100 μM; for pH 2 solubility: 0.1N HCl, first value of the cell; for pH 7 solubility: 1×PBS buffer (pH 7.4), second value of the cell.
A short description of series [2]: Solubility in simulated intestinal fluids (FaSSIF/FeSSIF). As to conditions: 25 °C, thermodynamic from solid.
[3] abbreviates: fasted state simulated intestinal fluid (FaSSIF), fassif.
Setting [4] is: fed state simulated intestinal fluid (FeSSIF), fessif.

Broadly, the solubility is the concentration that dissolves in the medium under given conditions. A high value points to a readily soluble substance.

On to `CC(C)(C#Cc1ccc(-c2ccc(Cl)c3c(N(C(=O)OCCCP(=O)(O)O)S(C)(=O)=O)nn(CC(F)(F)F)c23)c([C@H](Cc2cc(F)cc(F)c2)NC(=O)Cn2nc(C(F)(F)F)c3c2C(F)(F)[C@@H]2C[C@H]32)n1)S(C)(=O)=O` [Compound 112, (3-(((4-chloro-7-(2-((S)-1-(2-((3bS,4aR)-5,5-difluoro-3-(trifluoromethyl)-3b,4,4a,5-tetrahydro-1H-cyclopropa[3,4]cyclopenta[1,2-c]pyrazol-1-yl)acetamido)-2-(3,5-difluorophenyl)ethyl)-6-(3-methyl-3-(methylsulfonyl)but-1-yn-1-yl)pyridin-3-yl)-1-(2,2,2-trifluoroethyl)-1H-indazol-3-yl)(methylsulfonyl)carbamoyl)oxy)propyl)phosphonic acid], for which, in series [1], the “pH 2 solubility” value was found to be 1 μM. Besides, in series [1], the “pH 7 solubility” value was found to be 77 μM. In addition, the results for the solubility in series [2] (setting [3]) and in series [2] (setting [4]) were 778 µg/mL (≈ 686 µM) and 1250 µg/mL (≈ 1100 µM), respectively.

Consider `CC(C)(C#Cc1ccc(-c2ccc(Cl)c3c(N(C(=O)N[C@](C)(CO)CC(=O)O)S(C)(=O)=O)nn(CC(F)(F)F)c23)c([C@H](Cc2cc(F)cc(F)c2)NC(=O)Cn2nc(C(F)(F)F)c3c2C(F)(F)[C@@H]2C[C@H]32)n1)S(C)(=O)=O` [Compound 66, (S)-3-(3-(4-chloro-7-(2-((S)-1-(2-((3bS,4aR)-5,5-difluoro-3-(trifluoromethyl)-3b,4,4a,5-tetrahydro-1H-cyclopropa[3,4]cyclopenta[1,2-c]pyrazol-1-yl)acetamido)-2-(3,5-difluorophenyl)ethyl)-6-(3-methyl-3-(methylsulfonyl)but-1-yn-1-yl)pyridin-3-yl)-1-(2,2,2-trifluoroethyl)-1H-indazol-3-yl)-3-(methylsulfonyl)ureido)-4-hydroxy-3-methylbutanoic acid], for which the “pH 2 solubility” value in series [1] is 1 μM. Moreover, the “pH 7 solubility” value in series [1] was determined as 10 μM. Further, the solubility in series [2] (setting [3]) was 425 µg/mL (≈ 377 µM); in series [2] (setting [4]), 140 µg/mL (≈ 124 µM).

For `CC(C)(C#Cc1ccc(-c2ccc(Cl)c3c(N(C(=O)N(CCCC(=O)O)CCNC(=O)OCOP(=O)(O)O)S(C)(=O)=O)nn(CC(F)(F)F)c23)c([C@H](Cc2cc(F)cc(F)c2)NC(=O)Cn2nc(C(F)(F)F)c3c2C(F)(F)[C@@H]2C[C@H]32)n1)S(C)(=O)=O` [Compound 82], in series [1], the “pH 2 solubility” value turned out to be 2 μM and the “pH 7 solubility” value is listed as 100 μM. This molecule registered a solubility in series [2] (setting [3]) of 2680 µg/mL (≈ 2070 µM). Moreover, the solubility in series [2] (setting [4]) was 1800 µg/mL (≈ 1390 µM).

Consider `CC(C)(C#Cc1ccc(-c2ccc(Cl)c3c(N(C(=O)N[C@@H](COP(=O)(O)O)C(=O)O)S(C)(=O)=O)nn(CC(F)(F)F)c23)c([C@H](Cc2cc(F)cc(F)c2)NC(=O)Cn2nc(C(F)(F)F)c3c2C(F)(F)[C@@H]2C[C@H]32)n1)S(C)(=O)=O` [Compound 59, N-((4-chloro-7-(2-((S)-1-(2-((3bS,4aR)-5,5-difluoro-3-(trifluoromethyl)-3b,4,4a,5-tetrahydro-1H-cyclopropa[3,4]cyclopenta[1,2-c]pyrazol-1-yl)acetamido)-2-(3,5-difluorophenyl)ethyl)-6-(3-methyl-3-(methylsulfonyl)but-1-yn-1-yl)pyridin-3-yl)-1-(2,2,2-trifluoroethyl)-1H-indazol-3-yl)(methylsulfonyl)carbamoyl)-O-phosphono-L-serine], for which, in series [1], the “pH 2 solubility” value turned out to be 2 μM. Besides, the “pH 7 solubility” value in series [1] was determined as 21 μM. For the same molecule, the solubility in series [2] (setting [3]) was 798 µg/mL (≈ 677 µM); in series [2] (setting [4]) it was 819 µg/mL (≈ 694 µM).

With `CN(C(=O)N(c1nn(CC(F)(F)F)c2c(-c3ccc(C#CC(C)(C)S(C)(=O)=O)nc3[C@H](Cc3cc(F)cc(F)c3)NC(=O)Cn3nc(C(F)(F)F)c4c3C(F)(F)[C@@H]3C[C@H]43)ccc(Cl)c12)S(C)(=O)=O)[C@@H](CCC(=O)O)C(=O)OCOP(=O)(O)O` [Compound 87, (S)-4-(3-(4-chloro-7-(2-((S)-1-(2-((3bS,4aR)-5,5-difluoro-3-(trifluoromethyl)-3b,4,4a,5-tetrahydro-1H-cyclopropa[3,4]cyclopenta[1,2-c]pyrazol-1-yl)acetamido)-2-(3,5-difluorophenyl)ethyl)-6-(3-methyl-3-(methylsulfonyl)but-1-yn-1-yl)pyridin-3-yl)-1-(2,2,2-trifluoroethyl)-1H-indazol-3-yl)-1-methyl-3-(methylsulfonyl)ureido)-5-oxo-5-((phosphonooxy)methoxy)pentanoic acid], in series [1], the “pH 2 solubility” value came out at 1 μM and the “pH 7 solubility” value came out at 18 μM. In series [2] (setting [3]), the solubility is > 2480 µg/mL. The molecule also displayed a solubility in series [2] (setting [4]) of 299 µg/mL (≈ 236 µM).

On to `C[C@@H](N)C(=O)OCN(c1nn(CC(F)(F)F)c2c(-c3ccc(C#CC(C)(C)S(C)(=O)=O)nc3[C@H](Cc3cc(F)cc(F)c3)NC(=O)Cn3nc(C(F)(F)F)c4c3C(F)(F)[C@@H]3C[C@H]43)ccc(Cl)c12)S(C)(=O)=O` [Compound 26, (N-(4-chloro-7-(2-((S)-1-(2-((3bS,4aR)-5,5-difluoro-3-(trifluoromethyl)-3b,4,4a,5-tetrahydro-1H-cyclopropa[3,4]cyclopenta[1,2-c]pyrazol-1-yl)acetamido)-2-(3,5-difluorophenyl)ethyl)-6-(3-methyl-3-(methylsulfonyl)but-1-yn-1-yl)pyridin-3-yl)-1-(2,2,2-trifluoroethyl)-1H-indazol-3-yl)methylsulfonamido)methyl D-alaninate], for which, in series [1], the “pH 2 solubility” value is recorded as 23 μM and the “pH 7 solubility” value stood at 2 μM. The solubility in series [2] (setting [3]) was 13 µg/mL (≈ 12.2 µM). Further, in series [2] (setting [4]), the solubility is 89 µg/mL (≈ 83.2 µM).

For the molecule `CC(C)(C#Cc1ccc(-c2ccc(Cl)c3c(N(C(=O)NC(C(=O)O)C(=O)O)S(C)(=O)=O)nn(CC(F)(F)F)c23)c([C@H](Cc2cc(F)cc(F)c2)NC(=O)Cn2nc(C(F)(F)F)c3c2C(F)(F)[C@@H]2C[C@H]32)n1)S(C)(=O)=O` [Compound 53, 2-(3-(4-chloro-7-(2-((S)-1-(2-((3bS,4aR)-5,5-difluoro-3-(trifluoromethyl)-3b,4,4a,5-tetrahydro-1H-cyclopropa[3,4]cyclopenta[1,2-c]pyrazol-1-yl)acetamido)-2-(3,5-difluorophenyl)ethyl)-6-(3-methyl-3-(methylsulfonyl)but-1-yn-1-yl)pyridin-3-yl)-1-(2,2,2-trifluoroethyl)-1H-indazol-3-yl)-3-(methylsulfonyl)ureido)malonic acid], in series [1], the “pH 2 solubility” value amounted to 1 μM. In series [1], the “pH 7 solubility” value was 62 μM. The solubility in series [2] (setting [3]) was 758 µg/mL (≈ 681 µM); in series [2] (setting [4]) it was 370 µg/mL (≈ 332 µM).

Regarding `CC(C)(C#Cc1ccc(-c2ccc(Cl)c3c(N(COC(=O)C(=O)O)S(C)(=O)=O)nn(CC(F)(F)F)c23)c([C@H](Cc2cc(F)cc(F)c2)NC(=O)Cn2nc(C(F)(F)F)c3c2C(F)(F)[C@@H]2C[C@H]32)n1)S(C)(=O)=O` [Compound 20, 2-((N-(4-chloro-7-(2-((S)-1-(2-((3bS,4aR)-5,5-difluoro-3-(trifluoromethyl)-3b,4,4a,5-tetrahydro-1H-cyclopropa[3,4]cyclopenta[1,2-c]pyrazol-1-yl)acetamido)-2-(3,5-difluorophenyl)ethyl)-6-(3-methyl-3-(methylsulfonyl)but-1-yn-1-yl)pyridin-3-yl)-1-(2,2,2-trifluoroethyl)-1H-indazol-3-yl)methylsulfonamido)methoxy)-2-oxoacetic acid], in series [1], the “pH 2 solubility” value is 13 μM and the “pH 7 solubility” value amounted to 100 μM. The same molecule gave a solubility in series [2] (setting [3]) of 448 µg/mL (≈ 419 µM). This molecule also had a solubility in series [2] (setting [4]) of 454 µg/mL (≈ 424 µM).

For the molecule `CN(C(=O)N(c1nn(CC(F)(F)F)c2c(-c3ccc(C#CC(C)(C)S(C)(=O)=O)nc3[C@H](Cc3cc(F)cc(F)c3)NC(=O)Cn3nc(C(F)(F)F)c4c3C(F)(F)[C@@H]3C[C@H]43)ccc(Cl)c12)S(C)(=O)=O)[C@@H](CC(=O)O)C(=O)OCOP(=O)(O)O` [Compound 88, (S)-3-(3-(4-chloro-7-(2-((S)-1-(2-((3bS,4aR)-5,5-difluoro-3-(trifluoromethyl)-3b,4,4a,5-tetrahydro-1H-cyclopropa[3,4]cyclopenta[1,2-c]pyrazol-1-yl)acetamido)-2-(3,5-difluorophenyl)ethyl)-6-(3-methyl-3-(methylsulfonyl)but-1-yn-1-yl)pyridin-3-yl)-1-(2,2,2-trifluoroethyl)-1H-indazol-3-yl)-1-methyl-3-(methylsulfonyl)ureido)-4-oxo-4-((phosphonooxy)methoxy)butanoic acid], the “pH 2 solubility” value in series [1] worked out at 1 μM. Also, the “pH 7 solubility” value in series [1] is on record as 15 μM. In addition, the values for the solubility in series [2] (setting [3]) and in series [2] (setting [4]) were 841 µg/mL (≈ 672 µM) and 589 µg/mL (≈ 471 µM), respectively.

Regarding `CC(C)(C#Cc1ccc(-c2ccc(Cl)c3c(N(C(=O)OCCCC(=O)O)S(C)(=O)=O)nn(CC(F)(F)F)c23)c([C@H](Cc2cc(F)cc(F)c2)NC(=O)Cn2nc(C(F)(F)F)c3c2C(F)(F)[C@@H]2C[C@H]32)n1)S(C)(=O)=O` [Compound 113], in series [1], the “pH 2 solubility” value came to 1 μM and the “pH 7 solubility” value came to 5 μM. The molecule also came in with a solubility in series [2] (setting [3]) of 5 µg/mL (≈ 4.55 µM). This molecule also returned a solubility in series [2] (setting [4]) of 8 µg/mL (≈ 7.28 µM).

Consider `CC(C)(C#Cc1ccc(-c2ccc(Cl)c3c(N(COC(=O)CN)S(C)(=O)=O)nn(CC(F)(F)F)c23)c([C@H](Cc2cc(F)cc(F)c2)NC(=O)Cn2nc(C(F)(F)F)c3c2C(F)(F)[C@@H]2C[C@H]32)n1)S(C)(=O)=O` [Compound 29, (N-(4-chloro-7-(2-((S)-1-(2-((3bS,4aR)-5,5-difluoro-3-(trifluoromethyl)-3b,4,4a,5-tetrahydro-1H-cyclopropa[3,4]cyclopenta[1,2-c]pyrazol-1-yl)acetamido)-2-(3,5-difluorophenyl)ethyl)-6-(3-methyl-3-(methylsulfonyl)but-1-yn-1-yl)pyridin-3-yl)-1-(2,2,2-trifluoroethyl)-1H-indazol-3-yl)methylsulfonamido)methyl glycinate], for which, in series [1], the “pH 2 solubility” value was 54 μM and the “pH 7 solubility” value amounted to 4 μM. Further, in series [2] (setting [3]), the solubility is 6 µg/mL (≈ 5.69 µM). The same molecule registered a solubility in series [2] (setting [4]) of 120 µg/mL (≈ 114 µM).
